The values that follow come from patent US20250051355A1, “COMPOUNDS, COMPOSITIONS, AND METHODS” (ACONCAGUA BIO, INC., priority 2023, published 2025).

In assay [1] the target is human calcitonin receptor (CTR) and RAMP3 (AMY3) (Homo sapiens, UniProt O60896+P30988). Kind of assay: Amylin Receptor cAMP Assay I. It is filed as cell-based. As to conditions: COS-7/AMY3 cells, cAMP Hi-range Kit, read-out: Amylin Receptor cAMP Stimulation Activity: EC50. From the text:
Amylin Receptor cAMP Assay I
AMYRs are heterodimers of the class B calcitonin (CT) G-protein-coupled receptor (CTR) and receptor activity-modifying proteins (RAMPs). All three RAMPs can interact with the CTR and form AMY1, AMY2, AMY3 with RAMP1, RAMP2 and RAMP3, respectively. Like other class B1 GPCRs, the CT receptor family is canonically coupled to Gs-mediated cAMP production, and measurement of cAMP accumulation has been the primary assay used to determine peptide selectivity and potency.
To optimize functional activity directed toward Gas coupling, COS-7 cells were stably transfected with human calcitonin receptor (CTR) and RAMP3, simultaneously. 100×concentration of compound working solutions were prepared (Agilent Technologies Bravo) with 4-fold serial dilution in 384-well Echo LDV plate (Labcyte, Cat #LP-0200). 100 nL/well 100× concentration of compound working solutions were moved to 384-well white low volume plate (Greiner, Cat #784075) using Labcyte ECHO550. 1×10^5 cells/mL COS-7/CTR or COS-7/AMY3 (HD Biosciences) cell suspensions prepared with assay buffer [DPBS containing 0.5 mM IBMX (Sigma, Cat #15879) and 0.1% BSA (GENVIEW, Cat #FAO16-100 g)], 10 μL cell suspensions were added to each well of previous generated assay plate which already contains 100 nL compound at 100× concentration using ThermoFisher Multidrop Combi (1000 cells/well). Seal the plate and incubate at 37° C. with 5% CO2 for 30 min.
After incubation, the cAMP assay signal was generated using cAMP Hi-range Kit (Cisbio). 5 μL cAMP-d2 working solution was added to each well, followed by 5 μL Anti-cAMP antibody-cryptate working solution which was added to each well using ThermoFisher Multidrop Combi. The samples were then incubated at room temperature for 1 hour protected from light. the fluorescence was read at 665 and 615 nm with Reader PerkinElmer EnVision.

Assay [2] addresses T1, human calcitonin receptor (CTR) (Homo sapiens, UniProt P30988).
T1 construct: expressed in transfected cells; host or cells: COS-7 (COS7-human CTR Clone #2)
T1 sequence (P30988 25-474): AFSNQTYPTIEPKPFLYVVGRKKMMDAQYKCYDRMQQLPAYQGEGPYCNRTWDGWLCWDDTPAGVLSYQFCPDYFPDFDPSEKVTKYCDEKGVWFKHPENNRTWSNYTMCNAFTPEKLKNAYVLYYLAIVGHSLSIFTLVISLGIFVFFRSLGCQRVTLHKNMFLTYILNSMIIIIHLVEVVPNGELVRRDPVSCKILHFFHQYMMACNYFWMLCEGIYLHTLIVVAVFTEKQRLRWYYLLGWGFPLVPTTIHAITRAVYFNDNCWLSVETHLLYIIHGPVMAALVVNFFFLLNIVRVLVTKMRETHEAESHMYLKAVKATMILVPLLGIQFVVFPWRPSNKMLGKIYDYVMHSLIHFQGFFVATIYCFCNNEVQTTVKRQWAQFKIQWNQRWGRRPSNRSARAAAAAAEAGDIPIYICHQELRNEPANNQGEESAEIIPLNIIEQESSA
Nature of the assay: Calcitonin receptor (CTR) cAMP Assay. The assay is classed as cell-based. As to conditions: COS7-human CTR Clone #2 cells, cAMP dynamic 2 kit; read-out: Calcitonin Receptor cAMP Stimulation Activity: EC50. The method, boiled down:
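COS-7 cells stably expressing human CTR (2000 cells/well) treated with 4-fold serially diluted compounds in HBSS/20 mM HEPES/0.5 mM IBMX/0.1% casein, 30 min at 37° C. cAMP quantified by HTRF (cAMP-d2 plus anti-cAMP cryptate, 1 h RT), fluorescence read at 665 and 615 nm.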

human calcitonin receptor (CTR) and RAMP3 (AMY3), sequence (O60896 24-148, one chain of several): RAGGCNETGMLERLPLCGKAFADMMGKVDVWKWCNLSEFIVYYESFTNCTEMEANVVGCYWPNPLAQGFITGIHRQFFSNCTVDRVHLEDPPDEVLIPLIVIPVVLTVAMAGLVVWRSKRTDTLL

Take `Cc1nnc(-c2c(CCc3ccc(F)cc3)nc3c(c2-c2ccc(C(=O)NCc4ccc(F)c(F)c4)s2)C(=O)N[C@H]3C(C)C)o1` [Compound 1, N-(3,4-difluorophenyl)methyl-5-{(S)-5-[2-(p-fluorophenyl)ethyl]-3-isopropyl-6-(5-methyl-1,3,4-oxadiazol-2-yl)-1-oxo-2,4-diaza-7-indanyl)-2-thenamide]: the EC50 came out at 43.9 nM in assay [1] and 3.7 nM in assay [2].

As to `Cc1nnc(-c2c(CCc3ccc(F)cc3)nc3c(c2-c2ccc(C(=O)NCc4ccc(F)c(F)c4)s2)C(=O)N[C@@H]3C(C)C)o1` [Compound 2, N-(3,4-difluorophenyl)methyl-5-((R)-5-[2-(p-fluorophenyl)ethyl]-3-isopropyl-6-(5-methyl-1,3,4-oxadiazol-2-yl)-1-oxo-2,4-diaza-7-indanyl}-2-thenamide], the figures for the EC50 in assay [1] and in assay [2] were 33.3 nM and 7 nM, respectively.

For `Cc1nnc(-c2c(CCc3ccc(F)cc3)nc3c(c2-c2ccc(C(=O)NCc4ccc(F)c(F)c4)s2)C(=O)N2CCC[C@@H]32)o1` [Compound 4, (S)—N-(3,4-difluorobenzyl)-5-(2-(4-fluorophenethyl)-3-(5-methyl-1,3,4-oxadiazol-2-yl)-5-oxo-7,8,9,9a-tetrahydro-5H-pyrido[2,3-a]pyrrolizin-4-yl)thiophene-2-carboxamide], the EC50 turned out to be 47.5 nM in assay [1] and 4.5 nM in assay [2].

As for `Cc1nnc(-c2c(COc3ccc(F)cc3)nc3c(c2-c2ccc(C(=O)NCc4ccc(F)c(F)c4)s2)C(=O)N2CCC[C@@H]32)o1` [Compound 7, (S)—N-(3,4-difluorobenzyl)-5-(2-((4-fluorophenoxy)methyl)-3-(5-methyl-1,3,4-oxadiazol-2-yl)-5-oxo-7,8,9,9a-tetrahydro-5H-pyrido[2,3-a]pyrrolizin-4-yl)thiophene-2-carboxamide], the EC50 in assay [1] was 128 nM; in assay [2], 76 nM.

As to `Cc1nnc(-c2c(CC(C)c3ccc(F)cc3)nc3c(c2-c2ccc(C(=O)NCc4ccc(F)c(F)c4)s2)C(=O)N2CCC[C@@H]32)o1` (stereo partly drawn) [Compound 9, N-(3,4-difluorobenzyl)-5-((9aS)-2-(2-(4-fluorophenyl)propyl)-3-(5-methyl-1,3,4-oxadiazol-2-yl)-5-oxo-7,8,9,9a-tetrahydro-5H-pyrido[2,3-a]pyrrolizin-4-yl)thiophene-2-carboxamide], the EC50 amounted to 53.3 nM in assay [1] and 15 nM in assay [2].

With `Cc1nnc(-c2c(CCc3cnn(C)c3)nc3c(c2-c2ccc(C(=O)NCc4ccc(F)c(F)c4)s2)C(=O)N2CCC[C@@H]32)o1` [Compound 43, (S)—N-(3,4-difluorobenzyl)-5-(3-(5-methyl-1,3,4-oxadiazol-2-yl)-2-(2-(1-methyl-1H-pyrazol-4-yl)ethyl)-5-oxo-7,8,9,9a-tetrahydro-5H-pyrido[2,3-a]pyrrolizin-4-yl)thiophene-2-carboxamide], in assay [1], the concentration giving a half-maximal response (EC50) stood at 1880 nM.

As to `Cc1nnc(-c2c(CC3(c4ccc(F)cc4)CC3)nc3c(c2-c2ccc(C(=O)NCc4ccc(F)c(F)c4)s2)C(=O)N2CCC[C@@H]32)o1` [Compound 49, (S)—N-(3,4-difluorobenzyl)-5-(2-((1-(4-fluorophenyl)cyclopropyl)methyl)-3-(5-methyl-1,3,4-oxadiazol-2-yl)-5-oxo-7,8,9,9a-tetrahydro-5H-pyrido[2,3-a]pyrrolizin-4-yl)thiophene-2-carboxamide], the 50% effective concentration (EC50) in assay [1] stood at 382 nM.

Take `Cc1nnc(-c2c(CCc3ccc(F)cc3)nc3c(c2-c2ccc(C(=O)NCc4ccc(F)c(F)c4)s2)C(=O)N2CC[C@H](O)[C@@H]32)o1` [Compound 50, N-(3,4-difluorobenzyl)-5-((9S,9aR)-2-(4-fluorophenethyl)-9-hydroxy-3-(5-methyl-1,3,4-oxadiazol-2-yl)-5-oxo-7,8,9,9a-tetrahydro-5H-pyrido[2,3-a]pyrrolizin-4-yl)thiophene-2-carboxamide]: the EC50 in assay [1] was found to be 129 nM.

Consider `Cc1nnc(-c2c(CC(O)c3ccc(F)cc3)nc3c(c2-c2ccc(C(=O)N[C@@H]4CCc5ccccc54)s2)C(=O)N2CCC[C@@H]32)o1` (stereo partly drawn) [Compound 51, N-[(1R)-2,3-dihydro-1H-indenyl]-5-[(9aS)-2-[2-(4-fluorophenyl)-2-hydroxyethyl]-3-(5-methyl-1,3,4-oxadiazol-2-yl)-5-oxo-7,8,9,9a-tetrahydro-5H-pyrido[2,3-a]pyrrolizin-4-yl]thiophene-2-carboxamide], for which the 50% effective concentration (EC50) in assay [1] worked out at 551 nM.

Turning to `Cc1nnc(-c2c(CC(F)c3ccc(F)cc3)nc3c(c2-c2ccc(C(=O)N[C@@H]4CCc5ccccc54)s2)C(=O)N2CCC[C@@H]32)o1` (stereo partly shown) [Compound 52], the concentration for a half-maximal effect (EC50) in assay [1] came to 126 nM.

For `Cc1nnc(-c2c(CCc3ccc(F)cc3)nc3c(c2-c2cc4ccnc(NCc5ccc(F)c(F)c5)c4s2)C(=O)N2CCCC32O)o1` (stereo not shown) [Compound 53], the EC50 in assay [1] was 13.1 nM.

For `Cc1cnc(-c2c(CCC3CCOCC3)nc3c(c2-c2ccc(C(=O)NCc4ccc(F)c(F)c4)s2)C(=O)N2CCC[C@@H]32)o1` [Compound 57], the EC50 in assay [1] stood at 113 nM.

Consider `Cc1nnc(-c2c(CCC3CCOC(C)(C)C3)nc3c(c2-c2ccc(C(=O)NCc4ccc(F)c(F)c4)s2)C(=O)N2CCC[C@@H]32)o1` (stereo partly drawn) [Compound 66, N-(3,4-difluorobenzyl)-5-((9aS)-2-(2-(2,2-dimethyltetrahydro-2H-pyran-4-yl)ethyl)-3-(5-methyl-1,3,4-oxadiazol-2-yl)-5-oxo-7,8,9,9a-tetrahydro-5H-pyrido[2,3-a]pyrrolizin-4-yl)thiophene-2-carboxamide], for which the half-maximal effective concentration (EC50) in assay [1] worked out at 975 nM.

Consider `Cc1nnc(-c2c(CCC3CCOCC3)nc3c(c2-c2cc4ccnc(N[C@@H]5CCc6cc(F)ccc65)c4s2)C(=O)N2CCC[C@@H]32)o1` [Compound 71], for which the EC50 in assay [1] is 27.8 nM.

With `Cc1nnc(-c2c(CCC3CCOCC3)nc3c(c2-c2cc4ccnc(N[C@@H]5CCc6ccc(F)cc65)c4s2)C(=O)N2CCC[C@@H]32)o1` [Compound 72], the EC50 in assay [1] was found to be 81.4 nM.

With `COc1cccc(CNc2nccc3cc(-c4c5c(nc(CCC6CCOCC6)c4-c4nnc(C)o4)[C@@H]4CCCN4C5=O)sc23)c1` [Compound 73], the EC50 in assay [1] was determined as 2200 nM.

Regarding `CO[C@H]1C[C@@H](Nc2nccc3cc(-c4c5c(nc(CCC6CCOCC6)c4-c4nnc(C)o4)[C@@H]4CCCN4C5=O)sc23)c2ccccc21` [Compound 74], in assay [1], the EC50 was 860 nM.

In the case of `Cc1cnc(-c2c(CCC3CCOCC3)nc3c(c2-c2cc4ccnc(NCc5cncc(F)c5)c4s2)C(=O)N2CCC[C@@H]32)o1` [Compound 75], in assay [1], the half-maximal effective concentration (EC50) is 360 nM.

In the case of `CCc1nc2c(c(-c3ccc(C(=O)N[C@@H]4CCc5cc(F)ccc54)s3)c1-c1nnc(C)o1)C(=O)N1CCC[C@@H]21` [Compound 82, N—[(R)-5-fluoro-1-indanyl]-5-((2S)-11-ethyl-10-(5-methyl-1,3,4-oxadiazol-2-yl)-7-oxo-6,12-diazatricyclo[6.4.0.0^2,6]dodeca-1(8),9,11-trien-9-yl}-2-thenamide], the EC50 in assay [1] was 1810 nM.

As for `COc1cccc2c1CC[C@H]2Nc1nccc2cc(-c3c4c(nc(CCC5CCOCC5)c3-c3nnc(C)o3)[C@@H]3CCCN3C4=O)sc12` [Compound 83, (2S,6R)-9-(7-[(R)-4-methoxy-1-indanylamino]-1-thia-6-aza-2-indenyl}-10-(5-methyl-1,3,4-oxadiazol-2-yl)-11-[2-(tetrahydro-2H-pyran-4-yl)ethyl]-6,12-diazatricyclo[6.4.0.0^2,6,]dodeca-1(8), 9,11-trien-7-one], the EC50 in assay [1] came to 59 nM.

One may read the EC50 as the midpoint of the concentration-response curve.
